The values below come from patent US20240139327A1, “PRODRUG COMPOUND, PREPARATION METHOD THEREFOR AND USE THEREOF” (MINGHUI PHARMACEUTICAL (HANGZHOU) LIMITED, priority 2021, published 2024).

SMILES strings stand for the structures. Read-outs that look alike come from different tables or passages of the source.

A short description of this series: Skin-Pampa assay. To be noted: for Multiplicity (relative to the prototype drug): Skin-Pampa Pe of prodrug relative to its prototype drug. Format: in vitro ADME. The procedure:
• 1. Hydrate the Skin-Pampa membrane with hydration solution overnight. • 2. Dissolve each compound to be tested in DMSO and prepare 0.5 mL 20 mM solutions of the test compounds. Take 50 uL of solutions of the test compounds to the corresponding 5 mL of donor solution and mix well. • 3. Add 200 μL of the sample solution to the donor (bottom) plate and add 200 μL of acceptor solution into the wells of the acceptor (TOP) plate, and 12 wells are incubated in parallel for each sample. • 4. After 7 hours of incubation, 100 μL of the sample in each of the donor plate and 100 μL of the sample in each of the acceptor plate were sampled and then added with 200 μL of dilution (50% acetonitrile aqueous solution), mixed by vortexing and centrifuged, 200 μL of the supernatant was used for HPLC content detection. • 5. The Skin-Pampa parameters are calculated according to the following equation
[formula] [formula] • Pe—effective permeability coefficient; • VA— the volume of acceptor well (ml); • VD— the volume of donorwell (ml); • A—the filtration area (cm^2); • t—the incubation time (s); • tLAG—the steady-state time (s); • CD(t)—the concentration of the compound in donorwell at t; • CA(t)—the concentration of the compound in acceptor well at t; • CD(0)—the concentration at the compound in donorwell at 0.

[1] abbreviates: Skin-Pampa, 7 hours of incubation, 12 wells in parallel, HPLC detection.
[2] abbreviates: Skin-Pampa, 7 hours of incubation, 12 wells in parallel, HPLC detection, read-out: Pe (effective permeability coefficient).

Regarding `CCCCCCCC(=O)OCn1ccc2c(N(C)[C@H]3CN(C(=O)CC#N)CC[C@H]3C)ncnc21` [Example 1], the “Multiplicity (relative to the prototype drug)” value was 4.31-4.46. In addition, the Papp at 7 h, 200 µM (PAMPA) is 1.57 ± 0.5 ×10⁻⁶ cm/s. Moreover, the LogPe (PAMPA, 7 h, 200 µM) was −5.80 ± 0.11.
For the molecule `CCCCC(CC)CCC(=O)OCn1ccc2c(N(C)[C@H]3CN(C(=O)CC#N)CC[C@H]3C)ncnc21` (stereo partly shown) [Example 4], the “Multiplicity (relative to the prototype drug)” value is recorded as 8.25-8.92. The molecule further showed a LogPe under setting [1] of −5.50 ± 0.17. Besides, under setting [2], the Papp at 7 h, 200 µM was 3.13 ± 1.15 ×10⁻⁶ cm/s.
Consider `CCCCCCCCCCCC(=O)OCn1ccc2c(N(C)[C@H]3CN(C(=O)CC#N)CC[C@H]3C)ncnc21` [Example 5], for which the “Multiplicity (relative to the prototype drug)” value is recorded as 6.88-8.15. The molecule also gave a LogPe under setting [1] of −5.56 ± 0.16. Also, the Papp at 7 h, 200 µM under setting [2] was found to be 2.78 ± 1.13 ×10⁻⁶ cm/s.
For `CCCCCCCCC(=O)OCn1ccc2c(N(C)[C@H]3CN(C(=O)CC#N)CC[C@H]3C)ncnc21` [Example 7] the same measures were 7.38-10.08, −5.53 ± 0.08 and 2.98 ± 0.56 ×10⁻⁶ cm/s.
As for `CCCCCCCCCC(=O)OCn1ccc2c(N(C)[C@H]3CN(C(=O)CC#N)CC[C@H]3C)ncnc21` [Example 8], the “Multiplicity (relative to the prototype drug)” value is 5.29-7.67. The LogPe under setting [1] is on record as −5.66 ± 0.08. In addition, the Papp at 7 h, 200 µM under setting [2] came out at 2.19 ± 0.35 ×10⁻⁶ cm/s.
On the same counts, the results for `CCCCC(CC)CCC(=O)OCn1ccc2c(NC3C4CC5CC3CC(O)(C5)C4)c(C(N)=O)cnc21` (stereo not shown) [Example 13] are 8.59-15.6, −6.01 ± 0.19 and 1.07 ± 0.39 ×10⁻⁶ cm/s.
On the same counts, the results for `CCCCC(CC)CCC(=O)OCn1ccc2c1ncc1ncc([C@H]3CN(C(=O)NCC(F)(F)F)C[C@H]3CC)n12` (stereo partly shown) [Example 14] are 6.81-8.83, −6.09 ± 0.19 and 0.81 ± 0.28 ×10⁻⁶ cm/s.
On the same counts, the results for `CCCCC(CC)CCC(=O)OCn1ccc2c(-c3cnn(C4(CC#N)CN(C5CCN(C(=O)c6ccnc(C(F)(F)F)c6F)CC5)C4)c3)ncnc21` (stereo not shown) [Example 15] are 5.8-19.5, −5.90 ± 0.20 and 1.26 ± 0.48 ×10⁻⁶ cm/s.
In turn, `N#CCC1(n2cc(-c3ncnc4[nH]ccc34)cn2)CN(C2CCN(C(=O)c3ccnc(C(F)(F)F)c3F)CC2)C1` [Itacitinib, reference compound] registered a LogPe under setting [1] of −6.88 ± 0.34. For the same molecule, the Papp at 7 h, 200 µM under setting [2] was found to be 0.13 ± 0.17 ×10⁻⁶ cm/s.
Under setting [1], `NC(=O)c1cnc2[nH]ccc2c1N[C@@H]1[C@@H]2CC3C[C@H]1C[C@@](O)(C3)C2` [Peficitinib, reference compound] yielded a LogPe of −7.06 ± 0.33. Further, the Papp at 7 h, 200 µM under setting [2] came to 0.11 ± 0.06 ×10⁻⁶ cm/s.
On the same counts, the results for `CN1C(C(=O)Nc2ccccn2)=C(O)c2ccccc2S1(=O)=O` [Piroxicam, reference compound] are −5.73 ± 0.06 and 1.84 ± 0.24 ×10⁻⁶ cm/s.
`C[C@@H]1CCN(C(=O)CC#N)C[C@@H]1N(C)c1ncnc2[nH]ccc12` [Tofacitinib, reference compound] showed a LogPe under setting [1] of −6.45 ± 0.14. For the same molecule, the Papp at 7 h, 200 µM under setting [2] turned out to be 0.36 ± 0.12 ×10⁻⁶ cm/s.
With `CC[C@@H]1CN(C(=O)NCC(F)(F)F)C[C@@H]1c1cnc2cnc3[nH]ccc3n12` [Upadacitinib, reference compound], under setting [1], the LogPe is −6.96 ± 0.20. Further, the Papp at 7 h, 200 µM under setting [2] came out at 0.11 ± 0.05 ×10⁻⁶ cm/s.
